Experimental data as given in patent US20240101971A1 (Biogen MA Inc., priority 2021, published 2024).
Where a name gives a salt, the structure may show the parent alone.

Columns and labels:
suspension HEK293 cells [1] = test: FACS analysis (propidium iodide) of cell cycle phase of non-transfected suspension HEK293 cultures; format: cell-based; conditions: for cell synchronization, cell cycle phase by FACS: 24 hours with agent, non-transfected suspension HEK293 cultures, FIG. 2A
Description: Cell cycle phase of non-transfected, suspension HEK293 cultures was evaluated using fluorescence activated cell sorting (FACS). Suspension HEK293 cultures were grown in shake flasks for 24 hours with cycle arresting agents (aphidicolin, caffeine, colcemid, colchicine, flavopiridol, hydroxyurea, thymidine, trichostatin A, and vinblastine sulfate) prior to sampling for FACS analysis using propidium iodide (PI), which binds to DNA. Light intensity is indicative of the relative quantity of DNA present in a cell, which is a measure of cell phase. Forward scatter indicates the a size of a cell, while side scatter indicates the a size of intracellular components. Fluorescence of PI was measured using an excitation of 493 nm and emission of 646 nm.

suspension HEK293 cells [2] = test: rAAV production at manufacturing scale, batch and fed batch bioreactors, suspension HEK293 cells, Payload A; format: cell-based; conditions: added 0.5 hours post-transfection
Description: Scalability of microtubule destabilizing agents (colcemid and colchicine) for production of rAAV was also assessed in batch bioreactors and larger volume fed batch bioreactors for manufacturing scale. Suspension HEK293 cells were transiently transfected with plasmids encoding Payload A flanked by an ITR on either side, at least one Rep polypeptide, at least one Cap polypeptide, and at least one helper polypeptide, colcemid was added at 0.5 hours post-transfection, and cells were cultured in 3-liter batch bioreactors or 250-liter fed bioreactors for a period of time e.g., several days prior to sampling.

SMILES	cell synchronization, cell cycle phase by FACS (suspension HEK293 cells [1])	cell cycle arrest, phase (suspension HEK293 cells [1]; suspension HEK293 cell cultures, FIG. 2B)	rAAV particle titer relative to controls (suspension HEK293 cells [2]; 3-liter batch bioreactors, FIG. 8A)	rAAV particle titer relative to controls (suspension HEK293 cells [2]; 250-liter fed bioreactors, FIG. 8B-8C)
CN[C@H]1CCc2cc(OC)c(OC)c(OC)c2-c2ccc(OC)c(=O)cc21 [colcemid, N-deacetyl-N-methylcolchicine]	G2 phase	G2/M phase	increase	increase
COc1cc2c(c(OC)c1OC)-c1ccc(OC)c(=O)cc1[C@@H](NC(C)=O)CC2 [colchicine, (S)—N-(5,6,7,9-tetrahydro-1,2,3,10-tetramethoxy-9-oxobenzo[a]heptalen-7-yl)acetamide]	G2 phase	–	–	–
CC[C@]1(O)C[C@H]2C[N@](CCc3c([nH]c4ccccc34)[C@@](C(=O)OC)(c3cc4c(cc3OC)N(C)[C@H]3[C@@](O)(C(=O)OC)[C@H](OC(C)=O)[C@]5(CC)C=CCN6CC[C@]43[C@@H]65)C2)C1 [vinblastine sulfate, vincaleukoblastine]	G2 phase	–	–	–
